From article PMC11484942, “Rumicidins are a family of mammalian host-defense peptides plugging the 70S ribosome exit tunnel” (Nature Communications, 2024)

How the values were obtained:
[1] = test system: E. coli 1057 R2 (rpoS^Q3stop, macB^N470D); settings: MHB + 0.9% NaCl
Summary of the method: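 Broth microdilution (CLSI-based) used 10^6 CFU/mL mid-log cells in MHB with or without added NaCl, and peptides serially diluted in 0.1% BSA at 37 °C. Resistance induction used daily serial passage from sub-MIC wells, followed by 3 drug-free passages before the final MIC.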

T-/B-/NK-lymphocytes = assay: Cytokine response, multiplex xMAP; type: cell-based, human; settings: 2 µM peptide, 24 h
Experimental: The acute monocytic leukemia THP-1 cell line (ATCC TIB-202) was cultured in the complete RPMI 1640 medium (Invitrogen) containing 10% FBS, 1× antibiotic-antimycotic solution (Invitrogen), and 0.05 mM β-mercaptoethanol, in the CO2-incubator (5% CO2, 37 °C). THP-1 cells were differentiated into proinflammatory macrophages (MΦ1) according to the previously reported protocol. Primary peripheral blood mononuclear cells (PBMC) collected from a healthy donor were purchased from ATCC (PCS-800-011), thawed, and seeded into a 96-well plate one day prior to the experiment at a density of 2 × 10^5 cells/well. Two different cell subpopulations (monocytes and T-/B-/NK-lymphocytes) were isolated from PBMC based on their adherence ability. Macrophages MΦ1 were washed out and seeded into 96-well plates at a density of 10^5 cells/well one day prior to the experiment. The next day, medium in each well was replaced by a fresh complete RPMI 1640 medium with or without 2 μM of a tested peptide (rumicidin-1 or LL-37). Cell cultures were kept in a CO2-incubator (5% CO2, 37 °C) for 24 h. Culture supernatants were collected 24 h later and stored at −70 °C degrees less than one week prior to the assessment of analytes. 26 analytes were measured at a protein level by multiplex xMAP technology using the MILLIPLEX MAP Human Cytokine/Chemokine Magnetic Bead Immunology Panel kit (HCYTOMAG-60K-27, Merck): eotaxin-1/CCL11, TGFα, GM-CSF, IFNα2, IFNγ, IL-10, IL-12p40, IL-12p70, IL-15, sCD40L, IL-17A, IL-1RA, IL-1α, IL-9, IL-1β, IL-2, IL-3, IL-4, IL-5, IL-6, IL-7, IL-8/CXCL8, IP-10/CXCL10, RANTES/CCL5, TNFα, TNFβ. Multiplex-based assay read-out was performed using the MAGPIX system (Merck) with the xPONENT 4.2 software (Merck) in accordance with the manufacturer’s instruction with overnight incubation of the samples with primary antibodies. The final analysis was carried out with the MILLIPLEX Analyst v5.1 software (Merck). Measurements were performed twice for each sample. The release of the analytes in control and experimental samples were compared by unpaired two-sample t-test using GraphPad Prism v.8.0.1. The p values ≤ 0.05 were considered significant.

CC[C@H](C)[C@H](NC(=O)[C@H](CCCCN)NC(=O)[C@H](CCC(=O)O)NC(=O)[C@H](CCCCN)NC(=O)[C@H](CO)NC(=O)[C@H](CCCCN)NC(=O)[C@H](CCCNC(=N)N)NC(=O)[C@H](Cc1ccccc1)NC(=O)[C@H](Cc1ccccc1)NC(=O)[C@H](CC(=O)O)NC(=O)CNC(=O)[C@H](CC(C)C)NC(=O)[C@@H](N)CC(C)C)C(=O)NCC(=O)N[C@@H](CCCCN)C(=O)N[C@@H](CCC(=O)O)C(=O)N[C@@H](Cc1ccccc1)C(=O)N[C@@H](CCCCN)C(=O)N[C@@H](CCCNC(=N)N)C(=O)N[C@H](C(=O)N[C@H](C(=O)N[C@@H](CCC(N)=O)C(=O)N[C@@H](CCCNC(=N)N)C(=O)N[C@H](C(=O)N[C@@H](CCCCN)C(=O)N[C@@H](CC(=O)O)C(=O)N[C@@H](Cc1ccccc1)C(=O)N[C@@H](CC(C)C)C(=O)N[C@@H](CCCNC(=N)N)C(=O)N[C@@H](CC(N)=O)C(=O)N[C@@H](CC(C)C)C(=O)N[C@H](C(=O)N1CCC[C@H]1C(=O)N[C@@H](CCCNC(=N)N)C(=O)N[C@H](C(=O)N[C@@H](CCC(=O)O)C(=O)N[C@@H](CO)C(=O)O)[C@@H](C)O)C(C)C)[C@@H](C)CC)C(C)C)[C@@H](C)CC [LL-37]
MIC [1]: 2 µM
GM-CSF (T-/B-/NK-lymphocytes): 0,66 pg/ml
IFNa2 (T-/B-/NK-lymphocytes): 7,02 pg/ml
IFNg (T-/B-/NK-lymphocytes): 1,93 pg/ml
IL-1RA (T-/B-/NK-lymphocytes): 6,49 pg/ml
IL-1a (T-/B-/NK-lymphocytes): < 1.13 pg/mL
IL-1b (T-/B-/NK-lymphocytes): < 2.88 pg/mL
IL-2 (T-/B-/NK-lymphocytes): < 2.73 pg/mL
IL-3 (T-/B-/NK-lymphocytes): < 3.02 pg/mL
IL-4 (T-/B-/NK-lymphocytes): 51,58 pg/ml
IL-5 (T-/B-/NK-lymphocytes): < 2.74 pg/mL
IL-6 (T-/B-/NK-lymphocytes): < 2.42 pg/mL
IL-7 (T-/B-/NK-lymphocytes): < 2.06 pg/mL
IL-8 (T-/B-/NK-lymphocytes): 411,17 pg/ml
IL-9 (T-/B-/NK-lymphocytes): < 3.08 pg/mL
IL-10 (T-/B-/NK-lymphocytes): < 1.47 pg/mL
IL-12p40 (T-/B-/NK-lymphocytes): < 3.69 pg/mL
IL-12p70 (T-/B-/NK-lymphocytes): 1,03 pg/ml
IL-15 (T-/B-/NK-lymphocytes): < 2.08 pg/mL
IL-17A (T-/B-/NK-lymphocytes): < 0.94 pg/mL
IP-10 (T-/B-/NK-lymphocytes): 120,56 pg/ml
RANTES (T-/B-/NK-lymphocytes): 889,61 pg/ml
TGF-a (T-/B-/NK-lymphocytes): < 2.64 pg/mL
TNFa (T-/B-/NK-lymphocytes): 5,23 pg/ml
TNFb (T-/B-/NK-lymphocytes): < 2.85 pg/mL
sCD40L (T-/B-/NK-lymphocytes): 3,22 pg/ml
